The nature of data set [1]: Gravimetric Vapour Sorption (GVS). The format is physicochemical. As to conditions: at 80% RH (±0.2%). The procedure: Instrument Details: • X-Ray Powder Diffraction (XRPD)—PANalytical X'Pert machine in 2Ø-Ø configuration or a PANalytical Cubix machine in Ø-Ø configuration over the scan range 2° to 40° 2Ø with 100-second exposure per 0.02° increment. The X-rays were generated by a copper long-fine focus tube operated at 45 kV and 40 mA. […] The Data was collected on zero background holders on which ˜2 mg of the compound was placed. The holder was made from a single crystal of silicon, which had been cut along a non-diffracting plane and then polished on an optically flat finish. The X-rays incident upon this surface were negated by Bragg extinction. • Differential Scanning Calorimetry (DSC) thermograms were measured using a TA Q1000 Differential Scanning Calorimeter, with aluminium pans and pierced lids. The sample weights varied between 0.5 to 5 mg. The procedure was carried out under a flow of nitrogen gas (50 mL/min) and the temperature studied from 30 to 230° C. at a constant rate of temperature increase of 10° C. per minute. • Gravimetric Vapour Sorption (GVS) profiles were measured using a Surface Measurements Systems Dynamic Vapour Sorption DVS-1 or a DVS Advantage instrument. The solid sample ca. 1-5 mg was placed into a glass vessel and the weight of the sample was recorded during a dual cycle step method (40 to 90 to 0 to 90 to 0% relative humidity (RH), in steps of 10% RH).

The next data set has as its system guinea pig trachea. Description: Bronchodilator activity in the guinea pig isolated tracheal ring preparation. The note with it: 60 min, methacholine (1 μM) contracted, mean±s.e.mean. In kind it is cell-based. The procedure:
Evaluation of Bronchodilator Activity in the Guinea Pig Isolated Tracheal Ring Preparation
Guinea pigs (300-500 g) were killed by cervical dislocation and the trachea was isolated. The trachea was cut into segments 2-3 cartilage rings in width and suspended in 10 ml organ baths in modified Krebs' solution (mM; NaCl, 90; NaHCO3, 45; KCl, 5; MgSO4.7H2O, 0.5; Na2HPO4.2H2O, 1; CaCl2, 2.25; glucose, 10; pH 7.4 gassed with 5% CO2, 95% O2 at 37° C.). The tracheal rings were attached to an isometric force transducer for the measurement of isometric tension. The tissues were washed and a force of 1 g was applied to each tissue. The rings were contracted with methacholine (1 μM). Once the contraction had reached a plateau, vehicle (0.01% DMSO in distilled H2O), compound W (1 nM or 3 nM), compound X (1 nM), compound Y (1 nM), a combination of compound W (3 nM) and compound X (1 nM), or a combination of compound W (1 nM) and compound Y (1 nM) was added and the tissue left for 60 min. The tension was measured in each ring at 60 min following compound addition and was expressed as a % relaxation of the constriction to methacholine (1 μM) (mean±s.e.mean). Data were collected using the Chart 4 software (ADInstruments, Charlgrove, UK).

The target in the next data set is T1, β2 adrenoceptor (Homo sapiens, UniProt P07550).
T1 construct: Adherent H292 cells were removed from tissue culture flasks; endogenous in cells; host or cells: H292 cells
T1 sequence (P07550 whole entry): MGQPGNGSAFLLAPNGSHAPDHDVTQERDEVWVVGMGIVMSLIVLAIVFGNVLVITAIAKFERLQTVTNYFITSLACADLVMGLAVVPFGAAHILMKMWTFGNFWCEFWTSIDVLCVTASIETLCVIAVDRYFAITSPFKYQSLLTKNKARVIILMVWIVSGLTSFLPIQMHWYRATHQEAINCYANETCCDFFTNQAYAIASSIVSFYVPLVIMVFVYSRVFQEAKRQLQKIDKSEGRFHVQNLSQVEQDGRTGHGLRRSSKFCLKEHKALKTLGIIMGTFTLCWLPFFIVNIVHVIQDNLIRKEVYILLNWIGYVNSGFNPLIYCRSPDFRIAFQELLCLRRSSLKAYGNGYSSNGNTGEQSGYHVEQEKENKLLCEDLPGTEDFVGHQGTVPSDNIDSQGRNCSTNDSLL
Description: Adrenergic β mediated cAMP production in H292 cells (AlphaScreen). The format is cell-based. The note with it: Intrinsic Activity as a fraction relative to the maximum activity of formoterol. The procedure: Adrenergic β Mediated cAMP Production.
Cell preparation. H292 cells were grown in 225 cm2 flasks incubator at 37° C., 5% CO2 in RPMI medium containing, 10% (v/v) FBS (foetal bovine serum) and 2 mM L-glutamine.
Experimental Method. Adherent H292 cells were removed from tissue culture flasks by treatment with Accutase™ cell detachment solution for 15 minutes. Flasks were incubated for 15 minutes in a humidified incubator at 37° C., 5% CO2. Detached cells were re-suspended in RPMI media (containing 10% (v/v) FBS and 2 mM L-glutamine) at 0.05×10^6 cells per mL. 5000 cells in 100 μL were added to each well of a tissue-culture-treated 96-well plate and the cells incubated overnight in a humidified incubator at 37° C., 5% CO2. […]
AlphaScreen™ cAMP detection. The concentration of cAMP (cyclic adenosine monophosphate) in the cell lysate was determined using AlphaScreen™ methodology. […] The AlphaScreen™ signal was measured using an EnVision spectrophotometer (Perkin-Elmer Inc.) with the recommended manufacturer's settings. cAMP concentrations were determined by reference to a calibration curve determined in the same experiment using standard cAMP concentrations. […] Intrinsic Activity was expressed as a fraction relative to the maximum activity determined for formoterol in each experiment. […]
In general terms: cAMP levels reflect the balance of adenylyl cyclase and phosphodiesterase activity.

Counter-ions that a name gives are not always drawn.

In the case of `C[C@@](C(=O)O[C@H]1C[N+]2(CCc3ccc(F)cc3)CCC1CC2)(c1ccccc1)N1CCCCC1.[Br-]` [Preparation 4 bromide Form C, (R)-1-[2-(4-Fluoro-phenyl)-ethyl]-3-((S)-2-phenyl-2-piperidin-1-yl-propionyloxy)-1-azonia-bicyclo[2.2.2]octane bromide (Form C)], in data set [1], the GVS weight increase is listed as 4 % w/w.

With `C[N+](C)(CCOCc1ccc(Cl)cc1)Cc1cnc([C@](O)(c2ccccc2)C2CCCCC2)o1.C[N+](C)(CCOCc1ccc(Cl)cc1)Cc1cnc([C@](O)(c2ccccc2)C2CCCCC2)o1.O=S(=O)([O-])c1cccc2c(S(=O)(=O)[O-])cccc12` [compound X, [2-(4-Chloro-benzyloxy)-ethyl]-[2-((R)-Cyclohexyl-hydroxy-phenyl-methyl)-oxazol-5-ylmethyl]-dimethyl-ammonium hemi-napadisylate salt, reference compound], the percentage relaxation in the data set on guinea pig trachea (1 nM, n=4, FIG. 29) is 1±0.5%.

For the molecule `C[C@@](C(=O)O[C@H]1C[N+]2(CCc3ccc(F)cc3)CCC1CC2)(c1ccccc1)N1CCCCC1.[Br-]` [compound Y, (R)-1-[2-(4-Fluoro-phenyl)-ethyl]-3-((S)-2-phenyl-2-piperidin-1-yl-propionyloxy)-1-azonia-bicyclo[2.2.2]octane bromide], in the data set with guinea pig trachea (1 nM, n=6, FIG. 30), the percentage relaxation is 17±3.4%.

Take `O=C(CCNCCc1cccc(F)c1)N(CCNCCc1ccc(O)c2[nH]c(=O)sc12)C1CCCCC1` [Preparation 2, N-Cyclohexyl-N^3-[2-(3-fluorophenyl)ethyl]-N-(2-{[2-(4-hydroxy-2-oxo-2,3-dihydro-1,3-benzothiazol-7-yl)ethyl]amino}ethyl)-β-alaninamide dihydrobromide salt]: the “β2 Int Act” value at β2 adrenoceptor was found to be 0.85.

“N-Cyclohexyl-N^3-[2-(3-fluorophenyl)ethyl]-N-(2-{[2-(4-hydroxy-2-oxo-2,3-dihydro-1,3-benzothiazol-7-yl)ethyl]amino}ethyl)-β-alaninamide di-D-Mandelate salt [Preparation 3 (Form A)]”: the percentage relaxation with guinea pig trachea (1 nM, n=6, FIG. 30) came to 48±3.9%; in the data set on guinea pig trachea (3 nM, n=4, FIG. 29), 46±10.7%. The molecule further registered a GVS weight increase in data set [1] of 1 % w/w.

In data set [1], `C[C@@](C(=O)O[C@H]1C[N+]2(CCc3ccc(F)cc3)CCC1CC2)(c1ccccc1)N1CCCCC1.[Br-]` [Preparation 4 bromide Form A, (R)-1-[2-(4-Fluoro-phenyl)-ethyl]-3-((S)-2-phenyl-2-piperidin-1-yl-propionyloxy)-1-azonia-bicyclo[2.2.2]octane bromide (Form A)] came in with a GVS weight increase of 0.1 % w/w.

For the molecule `C[C@@](C(=O)O[C@H]1C[N+]2(CCc3ccc(F)cc3)CCC1CC2)(c1ccccc1)N1CCCCC1.Cc1ccc(S(=O)(=O)[O-])cc1` [Preparation 16, (R)-1-(4-fluorophenethyl)-3-((S)-2-phenyl-2-(piperidin-1-yl)propanoyloxy)-1-azoniabicyclo[2.2.2]octane 4-methylbenzenesulphonate], the GVS weight increase in data set [1] was found to be 0.1 % w/w.
